Legend:
[1] = tested on: absorption of sodium from the intestinal lumen; experiment: Inhibition of intestinal sodium absorption: rat urinary sodium and fecal form 16 h post-dose; type: in vivo, Sprague-Dawley rats; conditions: for FFS (fecal form score): 16 h post-dose, scale 1-5, group average
Experimental: Urinary sodium concentration and fecal form were measured to assess the ability of selected example compounds to inhibit the absorption of sodium from the intestinal lumen. Eight-week old Sprague-Dawley rats were purchased from Charles River Laboratories (Hollister, Calif.), were housed 2 per cage, and acclimated for at least 3 days before study initiation. Animals were fed Harlan Teklad Global 2018 rodent chow (Indianapolis, Ind.) and water ad libitum throughout the study and maintained in a standard light/dark cycle of 6 AM to 6 PM. On the day of the study, between 4 PM and 5 PM, a group of rats (n=6) were dosed via oral gavage with test compound or vehicle (water) at a volume of 10 mL/kg. After dose administration animals were placed in individual metabolic cages where they were also fed the same chow in meal form and watered ad libitum. At 16 h post-dose, the urine samples were collected and fecal form was assessed by two independent observations. Fecal forms were scored according to a common scale associated with increasing fecal water to the wettest observation in the cage's collection funnel (1, normal pellet; 2, pellet adhering to sides of collection funnel due to moisture; 3, loss of normal pellet shape; 4, complete loss of shape with a blotting pattern; 5, liquid fecal streams evident). A rat's fecal form score (FFS) was determined by averaging both observational scores for all rats within a group (n=6). The vehicle group average was 1. For urine samples, the volumes were determined gravimetrically and centrifuged at 3,600×g. The supernatants were diluted 100-fold in deionized Milli-Q water then filtered through a 0.2 μm GHP Pall AcroPrep filter plate (Pall Life Sciences, Ann Arbor, Mich.) prior to analysis by ion chromatography. Ten microliters of each filtered extract was injected onto a Dionex ICS-3000 ion chromatograph system (Dionex, Sunnyvale, Calif.). Cations were separated by an isocratic method using 25 mM methanesulfonic acid as the eluent on an IonPac CS12A 2 mm i.d.×250 mm, 8 μm particle size cation exchange column (Dionex). Sodium was quantified using standards prepared from a cation standard mix containing Li^+, Na^+, NH4^+, K^+, Mg^2+, and Ca^2+ (Dionex). The mean mass of sodium urinated for every group in the 16 h period was determined with the vehicle group usually urinating approximately 21 mg sodium. The urine Na (uNa) for rats in the test groups were expressed as a percentage of the vehicle mean and the means were compared to that of the vehicle group by utilizing a one-way analysis of variance coupled with a Dunnett's post hoc test.

human NHE3 = biological target: T1, human NHE3 (Homo sapiens, UniProt P48764); experiment: Cell-based assay of NHE-3 activity (human NHE3 inhibition assay); parameters: expressed in transfected cells; host or cells: Opossum kidney (OK) cells (ATCC), electroporated; conditions: OK cells with human NHE-3 gene, BCECF pH recovery, 0-30 μM test compound; read-out: Human NHE3 pIC50 (converted)
T1 sequence (P48764 26-834): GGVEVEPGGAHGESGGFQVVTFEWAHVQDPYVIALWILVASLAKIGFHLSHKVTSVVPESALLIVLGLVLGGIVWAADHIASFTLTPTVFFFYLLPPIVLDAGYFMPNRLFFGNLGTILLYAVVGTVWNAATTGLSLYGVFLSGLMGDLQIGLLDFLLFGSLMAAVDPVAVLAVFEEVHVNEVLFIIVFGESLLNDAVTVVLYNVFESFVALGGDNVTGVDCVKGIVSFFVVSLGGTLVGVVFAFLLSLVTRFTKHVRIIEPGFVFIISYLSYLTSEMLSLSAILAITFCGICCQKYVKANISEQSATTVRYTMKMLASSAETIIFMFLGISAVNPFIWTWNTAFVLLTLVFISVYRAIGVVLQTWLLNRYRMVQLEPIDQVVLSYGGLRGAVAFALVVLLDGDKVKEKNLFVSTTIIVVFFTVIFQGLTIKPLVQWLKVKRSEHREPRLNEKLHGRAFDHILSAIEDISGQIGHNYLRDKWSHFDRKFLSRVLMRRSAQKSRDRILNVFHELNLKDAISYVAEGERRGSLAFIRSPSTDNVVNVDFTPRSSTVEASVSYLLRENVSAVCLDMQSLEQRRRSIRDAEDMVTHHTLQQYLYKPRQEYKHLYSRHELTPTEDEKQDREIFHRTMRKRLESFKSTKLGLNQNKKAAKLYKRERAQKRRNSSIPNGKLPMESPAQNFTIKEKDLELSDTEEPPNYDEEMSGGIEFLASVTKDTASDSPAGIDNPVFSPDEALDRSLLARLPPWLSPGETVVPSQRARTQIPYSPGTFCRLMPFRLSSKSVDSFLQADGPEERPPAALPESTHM
Experimental: Rat or human NHE-3-mediated Na^+-dependent H^+ antiport was measured using a modification of the pH sensitive dye method originally reported by Paradiso (Proc. Natl. Acad. Sci. USA. (1984) 81(23): 7436-7440). Opossum kidney (OK) cells were obtained from the ATCC and propagated per their instructions. The rat NHE-3 gene (GenBank M85300) or the human NHE-3 gene (GenBank NM_004174.1) was introduced into OK cells via electroporation, and cells were seeded into 96 well plates and grown overnight. Medium was aspirated from the wells, cells were washed twice with NaCl-HEPES buffer (100 mM NaCl, 50 mM HEPES, 10 mM glucose, 5 mM KCl, 2 mM CaCl2, 1 mM MgCl2, pH 7.4), then incubated for 30 min at room temperature with NH4Cl-HEPES buffer (20 mM NH4Cl, 80 mM NaCl, 50 mM HEPES, 5 mM KCl, 2 mM CaCl2, 1 mM MgCl2, pH 7.4) containing 5 μM bis(acetoxymethyl) 3,3′-(3′,6′-bis(acetoxymethoxy)-5-((acetoxymethoxy)carbonyl)-3-oxo-3H-spiro[isobenzofuran-1,9′-xanthene]-2′,7′-diyl)dipropanoate (BCECF-AM). Cells were washed twice with Ammonium free, Na^+-free HEPES (100 mM choline, 50 mM HEPES, 10 mM glucose, 5 mM KCl, 2 mM CaCl2, 1 mM MgCl2, pH 7.4) and incubated in the same buffer for 10 minutes at room temperature to lower intracellular pH. […] Initial rates were plotted as the average 2 or more replicates, and pIC50 values were estimated using GraphPad Prism.

[2] = oral gavage 10 mg/kg, urine 16 h post-dose, read-out: uNa Result, uNa (% of vehicle)

SMILES | IC50 (human NHE3) | response vs control in vivo at 10 mg/kg [1, 2] | FFS (fecal form score) ([1]; oral gavage 10 mg/kg) | FFS (fecal form score) ([1]; oral gavage 3 mg/kg) | response vs control in vivo at 3 mg/kg ([1]; oral gavage 3 mg/kg, urine 16 h post-dose, read-out: uNa Result, uNa (% of vehicle))
O=C(NCCOCCOCCOCCNS(=O)(=O)c1ccc(O[C@H]2c3ccccc3C[C@@H]2N2CCCCC2)cc1)c1ccc(C(=O)NCCOCCOCCOCCNS(=O)(=O)c2ccc(O[C@H]3c4ccccc4C[C@@H]3N3CCCCC3)cc2)cc1 [Example 34] | < 100 nM | > 75% |  |  | 
O=C(NCCOCCOCCOCCNS(=O)(=O)c1ccc(O[C@H]2c3ccccc3C[C@@H]2N2CCCCC2)cc1)c1cccc(C(=O)NCCOCCOCCOCCNS(=O)(=O)c2ccc(O[C@H]3c4ccccc4C[C@@H]3N3CCCCC3)cc2)c1 [Example 35] | < 100 nM | > 75% |  |  | 

Second part, led by results:

IC50 (human NHE3) | SMILES | response vs control in vivo at 10 mg/kg [1, 2] | FFS (fecal form score) ([1]; oral gavage 10 mg/kg) | FFS (fecal form score) ([1]; oral gavage 3 mg/kg) | response vs control in vivo at 3 mg/kg ([1]; oral gavage 3 mg/kg, urine 16 h post-dose, read-out: uNa Result, uNa (% of vehicle))
< 100 nM | O=C(NCCOCCOCCNS(=O)(=O)c1ccc(O[C@H]2c3ccccc3C[C@@H]2N2CCCCC2)cc1)[C@H](O)[C@@H](O)C(=O)NCCOCCOCCNS(=O)(=O)c1ccc(O[C@H]2c3ccccc3C[C@@H]2N2CCCCC2)cc1 [Example 32] | > 75% |  |  | 
< 100 nM | O=C(NCCOCCOCCNS(=O)(=O)c1ccc(O[C@H]2c3ccccc3C[C@@H]2N2CCCCC2)cc1)c1cccc(C(=O)NCCOCCOCCNS(=O)(=O)c2ccc(O[C@H]3c4ccccc4C[C@@H]3N3CCCCC3)cc2)c1 [Example 33] | 35 to 75% |  |  | 
< 100 nM | CC(N)(CCC(=O)NCCOCCOCCNS(=O)(=O)c1ccc(O[C@H]2c3ccccc3C[C@@H]2N2CCCCC2)cc1)CCC(=O)NCCOCCOCCNS(=O)(=O)c1ccc(O[C@H]2c3ccccc3C[C@@H]2N2CCCCC2)cc1 [Example 37] | 35 to 75% | 1 |  | 
< 100 nM | O=C(NCCCCNC(=O)NCCOCCOCCNC(=O)Nc1ccc(O[C@H]2c3ccccc3C[C@@H]2N2CCCCC2)cc1)NCCOCCOCCNC(=O)Nc1ccc(O[C@H]2c3ccccc3C[C@@H]2N2CCCCC2)cc1 [Example 38] |  |  | 1 | > 75%
